Assay results from ChEMBL document CHEMBL3414489, “3,4-Diaza-bicyclo[4.1.0]hept-4-en-2-one phenoxypropylamine analogs of irdabisant (CEP-26401) as potent histamine-3 receptor inverse agonists with robust wake-promoting activity” (Eur J Med Chem, 2015).
Values belong to the compound of their own block, whether it stands above or below them. Activity calls are given as the source filed them. The rule behind the calls is not given here.

How the values were obtained:
Histamine H3 receptor [1] = target: Histamine H3 receptor (Rattus norvegicus, UniProt Q9QYN8); assay: Binding affinity to rat histamine H3 receptor
Histamine H3 receptor [2] = target: T1, Histamine H3 receptor (Homo sapiens, UniProt Q9Y5N1); assay: Binding affinity to human histamine H3 receptor
[3] = Permeability across human Caco2 cells; format: ADME, cell-based; details: Caco-2
Cytochrome P450 1A2 = target: T2, Cytochrome P450 1A2 (Homo sapiens, UniProt P05177); assay: Inhibition of CYP1A2 (unknown origin); format: ADME
T2 sequence (P05177 whole entry): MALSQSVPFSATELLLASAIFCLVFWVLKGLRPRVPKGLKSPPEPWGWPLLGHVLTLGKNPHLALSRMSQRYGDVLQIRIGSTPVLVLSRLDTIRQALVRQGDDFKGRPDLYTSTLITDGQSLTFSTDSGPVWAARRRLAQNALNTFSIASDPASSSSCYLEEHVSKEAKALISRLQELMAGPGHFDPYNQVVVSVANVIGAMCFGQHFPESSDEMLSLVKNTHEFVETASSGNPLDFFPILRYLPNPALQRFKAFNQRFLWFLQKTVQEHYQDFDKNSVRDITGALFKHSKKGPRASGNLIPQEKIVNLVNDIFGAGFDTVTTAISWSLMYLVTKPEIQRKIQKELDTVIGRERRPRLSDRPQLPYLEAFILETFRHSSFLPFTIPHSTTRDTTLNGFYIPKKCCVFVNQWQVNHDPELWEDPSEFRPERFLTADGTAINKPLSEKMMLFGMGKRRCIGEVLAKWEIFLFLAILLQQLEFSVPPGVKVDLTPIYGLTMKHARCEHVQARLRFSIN

Histamine H4 receptor = Histamine H4 receptor (Homo sapiens, UniProt Q9H3N8); assay: Inhibition of human H4R
[4] = Half life in rat liver microsomes; format: ADME
[5] = Cmax in rat at 10 mg/kg, po; format: ADME, organism-based; set-up: dose 10 mg/kg, route oral; details: in vivo
[6] = Volume of distribution at steady state in rat at 1 mg/kg, iv; format: ADME, organism-based; set-up: dose 1 mg/kg, route intravenous; details: in vivo, read-out: Vdss
[7] = Ratio of drug level in brain to plasma in rat at 10 mg/kg, ip after 2 hrs; format: ADME, organism-based; set-up: dose 10 mg/kg, route intraperitoneal; details: read-out: BPR
[8] = Half life in monkey liver microsomes; format: ADME, Macaca mulatta; details: rhesus monkey
Rattus norvegicus [9] = assay: Wake promoting activity in rat EEG/EMG model assessed as cumulative wake time at 3 mg/kg, ip after 22 hrs relative to vehicle-treated control; format: functional; details: route intraperitoneal
[10] = target: T3, Alpha-2C adrenergic receptor (Homo sapiens, UniProt P18825); assay: Inhibition of alpha-2C adrenergic receptor (unknown origin)
T3 sequence (P18825 whole entry): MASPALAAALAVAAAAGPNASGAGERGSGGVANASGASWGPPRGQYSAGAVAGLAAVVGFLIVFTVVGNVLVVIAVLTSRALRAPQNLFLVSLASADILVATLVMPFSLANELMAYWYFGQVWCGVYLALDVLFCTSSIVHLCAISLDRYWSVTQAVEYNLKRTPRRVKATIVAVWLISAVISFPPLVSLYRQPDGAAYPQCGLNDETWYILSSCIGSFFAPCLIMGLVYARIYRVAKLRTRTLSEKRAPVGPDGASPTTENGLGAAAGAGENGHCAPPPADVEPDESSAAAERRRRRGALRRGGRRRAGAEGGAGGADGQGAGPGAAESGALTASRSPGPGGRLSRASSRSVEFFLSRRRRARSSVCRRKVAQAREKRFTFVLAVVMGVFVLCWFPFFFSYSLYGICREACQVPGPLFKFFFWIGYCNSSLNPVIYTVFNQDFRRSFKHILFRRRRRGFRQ

[11] = Oral bioavailability in rat at 10 mg/kg; format: ADME, organism-based; details: in vivo
Rattus norvegicus [12] = assay: Toxicity in rat at 3 to 30 mg/kg, ip; format: organism-based; set-up: dose 3-30 mg/kg, route intraperitoneal; details: in vivo
Rattus norvegicus [13] = species on record: Rattus norvegicus; details: 10 mg/kg
[14] = Clearance in rat at 1 mg/kg, iv; format: ADME, organism-based; set-up: dose 1 mg/kg, route intravenous; details: in vivo
Histamine H2 receptor = Histamine H2 receptor (Homo sapiens, UniProt P25021); assay: Inhibition of human H2R
Histamine H3 receptor [15] = target: T1, Histamine H3 receptor; assay: Inverse agonist activity at human H3R expressed in CHO cells assessed as inhibition of RAMH-induced [35S]GTPgammaS binding relative to control; format: functional, cell-based
Rattus norvegicus [16] = assay: Wake promoting activity in rat EEG/EMG model assessed as AUC of cumulative wake at 3 mg/kg, ip up to 4 hrs relative to vehicle-treated control; format: functional, organism-based; set-up: dose 3 mg/kg, time < 4 hr
[17] = target: Sodium-dependent dopamine transporter (Homo sapiens, UniProt Q01959); assay: Inhibition of DAT (unknown origin)
[18] = Aqueous solubility of the compound at pH 7.4; format: physicochemical
[19] = AUC (0 to t) in rat at 10 mg/kg, po; format: ADME, organism-based; set-up: dose 10 mg/kg, route oral; details: plasma
Rattus norvegicus [20] = assay: Wake promoting activity in rat EEG/EMG model assessed as AUC of cumulative wake at 30 mg/kg, ip up to 5.5 hrs relative to vehicle-treated control; format: functional, organism-based; set-up: dose 30 mg/kg, time < 5.5 hr
[21] = Aqueous solubility of the compound at pH 2; format: physicochemical
[22] = Plasma protein binding in dog; format: ADME, cell-free, Canis lupus familiaris; details: read-out: PPB (converted)
Histamine H1 receptor = Histamine H1 receptor (Homo sapiens, UniProt P35367); assay: Inhibition of human H1R
[23] = Half life in human liver microsomes; format: ADME
Rattus norvegicus [24] = assay: Wake promoting activity in rat EEG/EMG model assessed as cumulative wake time at 30 mg/kg, ip after 22 hrs relative to vehicle-treated control; format: functional; details: route intraperitoneal
Rattus norvegicus [25] = species on record: Rattus norvegicus; details: 30 mg/kg
[26] = Half life in rat at 1 mg/kg, iv; format: ADME, organism-based; set-up: dose 1 mg/kg, route intravenous; details: in vivo
Rattus norvegicus [27] = species on record: Rattus norvegicus; assay: Inhibition of RAMH-induced dipsogenia in rat; format: functional
[28] = Plasma protein binding in human; format: ADME, cell-free; details: read-out: PPB (converted)
Rattus norvegicus [29] = assay: Wake promoting activity in rat EEG/EMG model assessed as cumulative wake time at 10 mg/kg, ip after 22 hrs relative to vehicle-treated control; format: functional; details: route intraperitoneal
[30] = Half life in mouse liver microsomes; format: ADME
[31] = Plasma protein binding in rat; format: ADME, cell-free; details: read-out: PPB (converted)
Rattus norvegicus [32] = assay: Toxicity in po dosed rat; format: organism-based; details: in vivo
Canis familiaris [33] = assay: Oral bioavailability in dog at 3 mg/kg; format: ADME, organism-based, Canis lupus familiaris; details: in vivo
[34] = Volume of distribution at steady state in dog at 1 mg/kg, iv; format: ADME, organism-based, Canis lupus familiaris; set-up: dose 1 mg/kg, route intravenous; details: in vivo, read-out: Vdss
[35] = Cmax in monkey at 3 mg/kg, po; format: ADME, organism-based, Macaca mulatta; set-up: dose 3 mg/kg, route oral; details: rhesus monkey, in vivo
[36] = AUC (0 to t) in monkey at 3 mg/kg, po; format: ADME, organism-based, Macaca mulatta; set-up: dose 3 mg/kg, route oral; details: rhesus monkey, plasma
[37] = Volume of distribution at steady state in monkey at 1 mg/kg, iv; format: ADME, organism-based, Macaca mulatta; set-up: dose 1 mg/kg, route intravenous; details: rhesus monkey, in vivo, read-out: Vdss
Rattus norvegicus [38] = assay: Wake promoting activity in rat EEG/EMG model assessed as total time awake at 30 mg/kg, ip at 6.5 hrs relative to vehicle-treated control; format: functional; details: route intraperitoneal
Canis familiaris [39] = assay: AUC (0 to t) in dog at 3 mg/kg, po; format: ADME, organism-based, Canis lupus familiaris, Plasma; set-up: dose 3 mg/kg, route oral; details: in vivo
Rattus norvegicus [40] = assay: Wake promoting activity in rat EEG/EMG model assessed as recovery from sleep at 3 to 30 mg/kg, ip after 22 hrs relative to vehicle-treated control; format: functional, organism-based
[41] = Half life in monkey at 1 mg/kg, iv; format: ADME, organism-based, Macaca mulatta; set-up: dose 1 mg/kg, route intravenous; details: rhesus monkey, in vivo
[42] = Half life in dog at 1 mg/kg, iv; format: ADME, organism-based, Canis lupus familiaris; set-up: dose 1 mg/kg, route intravenous; details: in vivo
[43] = Cmax in dog at 3 mg/kg, po; format: ADME, organism-based, Canis lupus familiaris; set-up: dose 3 mg/kg, route oral; details: in vivo
[44] = Ratio of drug level in brain to plasma in dog at 10 mg/kg, ip after 2 hrs; format: ADME, organism-based, Canis lupus familiaris; set-up: dose 10 mg/kg, route intraperitoneal; details: read-out: BPR
Rattus norvegicus [45] = assay: Wake promoting activity in ip dosed rat EEG/EMG model; format: functional, organism-based
[46] = Oral bioavailability in monkey at 3 mg/kg; format: ADME, organism-based, Macaca mulatta; details: rhesus monkey, in vivo
[47] = Clearance in monkey at 1 mg/kg, iv; format: ADME, organism-based, Macaca mulatta; set-up: dose 1 mg/kg, route intravenous; details: rhesus monkey, in vivo

Sequence of Histamine H3 receptor (Rattus norvegicus, UniProt Q9QYN8) (Q9QYN8 whole entry): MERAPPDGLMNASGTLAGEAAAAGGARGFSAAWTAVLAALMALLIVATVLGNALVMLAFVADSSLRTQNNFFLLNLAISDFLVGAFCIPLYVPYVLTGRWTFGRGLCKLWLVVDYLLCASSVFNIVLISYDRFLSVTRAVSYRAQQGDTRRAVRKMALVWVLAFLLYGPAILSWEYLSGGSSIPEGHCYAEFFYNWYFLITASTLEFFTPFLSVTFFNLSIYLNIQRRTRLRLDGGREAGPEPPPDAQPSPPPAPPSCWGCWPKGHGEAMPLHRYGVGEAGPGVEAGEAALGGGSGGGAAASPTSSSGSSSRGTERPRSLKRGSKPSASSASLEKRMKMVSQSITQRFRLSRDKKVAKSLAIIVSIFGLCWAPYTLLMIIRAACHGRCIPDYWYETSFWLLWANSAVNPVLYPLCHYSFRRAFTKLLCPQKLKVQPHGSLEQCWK
T1 sequence (Q9Y5N1 whole entry): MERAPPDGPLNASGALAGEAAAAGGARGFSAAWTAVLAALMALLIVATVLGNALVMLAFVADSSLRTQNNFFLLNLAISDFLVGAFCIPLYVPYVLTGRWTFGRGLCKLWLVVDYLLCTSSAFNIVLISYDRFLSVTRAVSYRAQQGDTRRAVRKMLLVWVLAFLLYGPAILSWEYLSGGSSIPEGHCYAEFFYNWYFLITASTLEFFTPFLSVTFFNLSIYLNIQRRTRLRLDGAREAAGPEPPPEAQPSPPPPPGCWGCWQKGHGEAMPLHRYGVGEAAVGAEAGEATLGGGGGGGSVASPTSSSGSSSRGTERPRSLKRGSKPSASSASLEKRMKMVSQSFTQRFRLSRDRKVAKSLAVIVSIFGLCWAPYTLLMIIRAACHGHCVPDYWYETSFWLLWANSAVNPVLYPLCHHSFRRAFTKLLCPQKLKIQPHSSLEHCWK
Sequence of Histamine H2 receptor (P25021 whole entry): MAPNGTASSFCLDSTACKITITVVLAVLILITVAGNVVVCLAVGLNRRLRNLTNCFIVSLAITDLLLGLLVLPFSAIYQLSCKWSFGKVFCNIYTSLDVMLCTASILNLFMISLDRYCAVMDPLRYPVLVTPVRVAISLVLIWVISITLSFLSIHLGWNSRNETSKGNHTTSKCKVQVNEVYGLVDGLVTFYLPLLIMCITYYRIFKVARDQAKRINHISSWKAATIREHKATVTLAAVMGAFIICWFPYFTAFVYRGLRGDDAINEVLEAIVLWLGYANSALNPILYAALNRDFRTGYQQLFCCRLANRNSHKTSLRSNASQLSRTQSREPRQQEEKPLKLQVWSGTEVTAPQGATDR
Sequence of Histamine H1 receptor (P35367 whole entry): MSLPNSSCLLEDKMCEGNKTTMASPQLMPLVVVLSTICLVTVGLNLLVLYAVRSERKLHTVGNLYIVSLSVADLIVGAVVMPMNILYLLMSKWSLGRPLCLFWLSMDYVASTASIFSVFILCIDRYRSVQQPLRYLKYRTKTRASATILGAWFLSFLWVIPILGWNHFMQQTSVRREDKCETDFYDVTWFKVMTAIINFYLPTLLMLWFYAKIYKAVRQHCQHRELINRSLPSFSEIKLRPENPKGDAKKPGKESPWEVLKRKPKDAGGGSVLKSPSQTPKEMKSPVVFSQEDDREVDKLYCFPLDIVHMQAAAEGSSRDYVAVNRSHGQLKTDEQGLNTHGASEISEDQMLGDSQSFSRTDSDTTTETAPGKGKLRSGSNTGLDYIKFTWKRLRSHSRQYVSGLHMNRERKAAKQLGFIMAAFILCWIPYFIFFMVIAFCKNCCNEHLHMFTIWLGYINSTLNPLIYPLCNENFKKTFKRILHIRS
Sequence of Sodium-dependent dopamine transporter (Q01959 whole entry): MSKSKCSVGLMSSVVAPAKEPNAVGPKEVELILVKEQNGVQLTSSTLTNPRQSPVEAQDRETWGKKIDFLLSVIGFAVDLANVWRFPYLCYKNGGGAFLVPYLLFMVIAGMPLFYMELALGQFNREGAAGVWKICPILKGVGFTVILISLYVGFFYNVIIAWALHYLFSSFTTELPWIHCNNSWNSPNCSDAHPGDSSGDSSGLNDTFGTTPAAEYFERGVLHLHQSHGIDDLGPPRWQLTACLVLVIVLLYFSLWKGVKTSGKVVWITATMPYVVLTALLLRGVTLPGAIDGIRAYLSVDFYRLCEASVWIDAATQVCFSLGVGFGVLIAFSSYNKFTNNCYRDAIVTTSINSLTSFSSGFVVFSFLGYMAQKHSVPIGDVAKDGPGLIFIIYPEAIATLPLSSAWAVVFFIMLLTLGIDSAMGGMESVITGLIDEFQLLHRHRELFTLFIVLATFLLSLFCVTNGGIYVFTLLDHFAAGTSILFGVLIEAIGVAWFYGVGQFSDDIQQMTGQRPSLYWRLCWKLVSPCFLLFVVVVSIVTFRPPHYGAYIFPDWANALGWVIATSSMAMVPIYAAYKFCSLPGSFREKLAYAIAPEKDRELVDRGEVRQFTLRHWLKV

Compound: O=C1NN=C(c2ccc(OCCCN3CCCCC3)cc2)C2CC12 (racemic)
Ki (Histamine H3 receptor [1]): 54 nM
Ki (Histamine H3 receptor [2]): 19 nM

Compound: C[C@@H]1CCCN1CCCOc1ccc(C2=NNC(=O)[C@H]3C[C@@H]23)cc1
Papp [3]: 15.7 ×10⁻⁶ cm/s
IC50 (Cytochrome P450 1A2): > 30000 nM
Ki (Histamine H4 receptor): > 10000 nM
half-life [4]: > 40 min
Cmax [5]: 738 ng/mL
Vd [6]: 2.5 L/kg
Kp at 2 h [7]: 3.1
half-life [8]: > 40 min
Time (Rattus norvegicus [9]): 85 min
Ki [10]: 1800 nM
bioavailability [11]: 46%
Activity (Rattus norvegicus [12]): Non-toxic
AUC (Rattus norvegicus [13]): 192 min
clearance [14]: 20 mL/min/kg
Ki (Histamine H3 receptor [1]): 14 nM
Ki (Histamine H2 receptor): > 10000 nM
EC50 (Histamine H3 receptor [15]): 0.6 nM
AUC (Rattus norvegicus [16]): 134 min
Ki (Histamine H3 receptor [2]): 4.5 nM
Ki [17]: 6600 nM
solubility [18]: > 4000 µg/mL
AUC(0-t) [19]: 4660 ng·h/mL
AUC (Rattus norvegicus [20]): 231 min
solubility [21]: > 4000 µg/mL
fraction unbound [22]: 0.47
Ki (Histamine H1 receptor): > 10000 nM
half-life [23]: > 40 min
Time (Rattus norvegicus [24]): 130 min
AUC (Rattus norvegicus [25]): 221 min
half-life [26]: 84 min
Activity (Rattus norvegicus [27]): Dose-dependent effect
ED50 (Rattus norvegicus [27]): 0.21 mg/kg
fraction unbound [28]: 0.39
Time (Rattus norvegicus [29]): 106 min
half-life [30]: > 40 min
fraction unbound [31]: 0.46
Activity (Rattus norvegicus [32]): Non-toxic

Compound: C[C@@H]1CCCN1CCCOc1ccc(C2=NNC(=O)[C@@H]3C[C@H]23)cc1
Papp [3]: 17.5 ×10⁻⁶ cm/s
F (Canis familiaris [33]): 115%
IC50 (Cytochrome P450 1A2): > 30000 nM
Ki (Histamine H4 receptor): > 10000 nM
half-life [4]: > 40 min
Cmax [5]: 810 ng/mL
Vd [6]: 0.9 L/kg
Vd [34]: 3.7 L/kg
Kp at 2 h [7]: 2
Cmax [35]: 764 ng/mL
half-life [8]: > 40 min
AUC(0-t) [36]: 9570 ng·h/mL
Ki [10]: 1500 nM
bioavailability [11]: 34%
Activity (Rattus norvegicus [12]): Non-toxic
Vd [37]: 4 L/kg
AUC (Rattus norvegicus [13]): 158 min
Time (Rattus norvegicus [38]): 197 min
clearance [14]: 9.6 mL/min/kg
AUCt (Canis familiaris [39]): 4205 ng·h/mL
Ki (Histamine H3 receptor [1]): 9.9 nM
Ki (Histamine H2 receptor): > 10000 nM
EC50 (Histamine H3 receptor [15]): 0.7 nM
Activity (Rattus norvegicus [40]): inactive
AUC (Rattus norvegicus [16]): 128 min
Ki (Histamine H3 receptor [2]): 3.1 nM
half-life [41]: 462 min
Ki [17]: 10200 nM
solubility [18]: > 4000 µg/mL
half-life [42]: 192 min
AUC(0-t) [19]: 5760 ng·h/mL
AUC (Rattus norvegicus [20]): 233 min
Cmax [43]: 664 ng/mL
solubility [21]: > 4000 µg/mL
fraction unbound [22]: 0.4
Ki (Histamine H1 receptor): > 10000 nM
Kp at 2 h [44]: 2.1
half-life [23]: > 40 min
half-life [26]: 66 min
Activity (Rattus norvegicus [27]): Dose-dependent effect
ED50 (Rattus norvegicus [27]): 0.14 mg/kg
Activity (Rattus norvegicus [45]): Dose-dependent effect
bioavailability [46]: 136%
fraction unbound [28]: 0.55
half-life [30]: > 40 min
fraction unbound [31]: 0.19
clearance [47]: 6 mL/min/kg
Activity (Rattus norvegicus [32]): Non-toxic

Continued by falling Ki (Histamine H3 receptor [1]), values first:

Ki (Histamine H3 receptor [1]): 139 nM
Ki (Histamine H3 receptor [2]): 39 nM
Compound: Cc1cc(OCCCN2CCCCC2)ccc1C1=NNC(=O)C2CC12 (racemic)

Ki (Histamine H3 receptor [1]): 66 nM
Ki (Histamine H3 receptor [2]): 7 nM
Compound: Cc1cc(OCCCN2CCC[C@H]2C)ccc1C1=NNC(=O)C2CC12 (mixture of isomers)
